Reference: patent publication US8664179B2, “Identification of novel antagonist toxins of T-type calcium channel for analgesic purposes” (Centre National de la Recherche Scientifique (CNRS), priority 2009, dated 2014)
Ends that are not written are not given here.

Columns and labels:
[1] = molecular target: T1, human Cav3.2 calcium channel (Homo sapiens, UniProt O95180); assay: Whole-cell patch clamp on HEK293 cells stably expressing the human Cav3.2 calcium channel; format: cell-based; conditions: CaV3.2 current, HEK293, FIG. 8
T1 construct: expressed in transfected cells
T1 sequence (O95180 whole entry): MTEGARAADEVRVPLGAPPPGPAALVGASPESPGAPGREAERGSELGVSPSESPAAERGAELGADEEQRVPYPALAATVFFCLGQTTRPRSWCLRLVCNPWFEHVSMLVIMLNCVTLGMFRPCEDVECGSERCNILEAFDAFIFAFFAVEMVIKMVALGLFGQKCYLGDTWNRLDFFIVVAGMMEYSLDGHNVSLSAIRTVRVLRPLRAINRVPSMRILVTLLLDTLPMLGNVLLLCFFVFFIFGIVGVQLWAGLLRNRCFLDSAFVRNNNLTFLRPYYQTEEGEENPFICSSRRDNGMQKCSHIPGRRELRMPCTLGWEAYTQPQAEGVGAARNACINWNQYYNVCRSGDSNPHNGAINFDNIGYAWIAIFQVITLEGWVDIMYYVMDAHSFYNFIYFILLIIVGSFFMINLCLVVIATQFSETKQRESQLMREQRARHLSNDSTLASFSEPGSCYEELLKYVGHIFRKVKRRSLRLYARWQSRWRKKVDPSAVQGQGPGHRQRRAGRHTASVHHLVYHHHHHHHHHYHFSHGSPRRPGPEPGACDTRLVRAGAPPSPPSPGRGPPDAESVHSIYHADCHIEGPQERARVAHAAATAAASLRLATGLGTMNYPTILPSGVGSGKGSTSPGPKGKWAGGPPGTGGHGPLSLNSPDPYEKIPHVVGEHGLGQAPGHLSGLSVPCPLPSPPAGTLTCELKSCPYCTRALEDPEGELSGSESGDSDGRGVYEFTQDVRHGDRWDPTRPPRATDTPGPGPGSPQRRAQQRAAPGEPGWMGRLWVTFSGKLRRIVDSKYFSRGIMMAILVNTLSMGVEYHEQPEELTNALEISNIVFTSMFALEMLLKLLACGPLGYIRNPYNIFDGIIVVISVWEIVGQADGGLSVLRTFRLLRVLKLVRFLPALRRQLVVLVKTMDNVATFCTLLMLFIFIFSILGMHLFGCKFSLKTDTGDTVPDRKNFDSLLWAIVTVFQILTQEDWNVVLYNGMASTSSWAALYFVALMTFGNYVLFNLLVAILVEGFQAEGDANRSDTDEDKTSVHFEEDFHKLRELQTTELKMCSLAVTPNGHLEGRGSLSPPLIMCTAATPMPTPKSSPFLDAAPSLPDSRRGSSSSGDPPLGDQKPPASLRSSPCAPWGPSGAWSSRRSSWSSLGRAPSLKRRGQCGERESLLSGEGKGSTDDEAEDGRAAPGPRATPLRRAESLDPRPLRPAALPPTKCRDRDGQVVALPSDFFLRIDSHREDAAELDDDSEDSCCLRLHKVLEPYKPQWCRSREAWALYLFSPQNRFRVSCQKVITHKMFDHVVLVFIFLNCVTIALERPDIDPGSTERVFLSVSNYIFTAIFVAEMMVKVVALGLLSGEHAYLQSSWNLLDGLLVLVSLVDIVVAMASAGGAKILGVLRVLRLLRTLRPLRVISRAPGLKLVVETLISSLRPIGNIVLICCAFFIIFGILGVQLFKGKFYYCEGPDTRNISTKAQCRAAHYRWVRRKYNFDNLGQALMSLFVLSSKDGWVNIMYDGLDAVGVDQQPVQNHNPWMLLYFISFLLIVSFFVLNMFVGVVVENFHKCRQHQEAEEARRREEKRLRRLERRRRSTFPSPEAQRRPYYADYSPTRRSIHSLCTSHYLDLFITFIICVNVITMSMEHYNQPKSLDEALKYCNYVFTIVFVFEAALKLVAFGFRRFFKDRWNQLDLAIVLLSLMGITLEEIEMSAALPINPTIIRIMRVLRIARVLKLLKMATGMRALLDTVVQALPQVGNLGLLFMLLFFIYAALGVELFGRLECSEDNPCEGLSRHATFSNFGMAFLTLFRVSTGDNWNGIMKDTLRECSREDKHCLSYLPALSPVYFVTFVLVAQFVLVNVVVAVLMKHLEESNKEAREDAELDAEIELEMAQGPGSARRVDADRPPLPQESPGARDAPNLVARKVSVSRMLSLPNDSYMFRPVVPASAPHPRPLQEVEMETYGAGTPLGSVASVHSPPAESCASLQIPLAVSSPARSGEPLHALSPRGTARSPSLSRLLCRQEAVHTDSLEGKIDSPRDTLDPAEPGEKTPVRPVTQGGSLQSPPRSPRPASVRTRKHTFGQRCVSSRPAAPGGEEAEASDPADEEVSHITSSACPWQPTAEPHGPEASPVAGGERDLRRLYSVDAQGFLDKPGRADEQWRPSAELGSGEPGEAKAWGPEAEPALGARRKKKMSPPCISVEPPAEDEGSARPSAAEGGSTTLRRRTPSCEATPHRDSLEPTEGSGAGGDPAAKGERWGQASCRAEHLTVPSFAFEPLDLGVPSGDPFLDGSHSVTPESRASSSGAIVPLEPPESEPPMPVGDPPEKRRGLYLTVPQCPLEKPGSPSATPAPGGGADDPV
Procedure: Starting from this stock concentration, the peptides were diluted in a solution corresponding to the extracellular solution used for the patch clamp analysis. This solution has the following composition (in mM): NaCl 135, TEACl 20, HEPES 10, CaCl2 2, MgCl21 (pH 7.3 with TEAOH).
HEK293 cells (ATCC) stably expressing the complementary DNA sequence of the human Cav3.2 calcium channel were used. At each passage of the cell line, cells were seeded at low density on culture dishes for “patch clamp” analysis (molecular electrophysiology).
The electrophysiological recordings were made by the “patch clamp” technique in the “whole cell” configuration using an Axopatch200B amplifier controlled by a Digidata interface and the pClamp10 software (Molecular Devices). The extracellular recording solution containing 2 mM calcium is described above.
The intrapipette solution used for the recordings has the following composition: CsCl 130 mM, HEPES 10 mM, EGTA 10 mM, CaCl2 2 mM, MgCl2 1 mM, MgATP 4 mM, TrisGTP 0.3 mM (pH 7.3 with NaOH). The results are analyzed using [sequence] (registered trademark), EXCEL (registered trademark) and [sequence] (registered trademark) software. […]
These “dose-effect” curves were analyzed with [sequence] […]

human Cav3.2 = molecular target: T2, human Cav3.2 (Homo sapiens, UniProt O95180); assay: Double microelectrode imposed-voltage recording of CaV3.2 current in Xenopus oocytes; format: cell-based; conditions: 5 mM barium, depolarization at -30 mV from -100 mV, after 30 seconds (FIG. 2)
T2 construct: expressed in transfected cells; host or cells: Xenopus laevis oocytes (cDNA injection)
T2 sequence (O95180 whole entry): as above
Procedure: The current is recorded in a solution containing 5 mM barium as charge carrier and it is produced by depolarization at −30 mV starting from a rest potential of −100 mV.
The cDNA coding for human Cav3.2 is injected into oocytes of Xenopus (Xenopus laevis) as described in Altier, C., Dubel, S. J., Barrére, C., Jarvis, S. E., Stotz, S. C., Spaetgens, R. L., Scott, J. D., Cornet, V., De Waard, M., Zamponi, G. W., Nargeot, J. and Bourinet, E. (2002) “Trafficking of L-type calcium channels mediated by postsynaptic scaffolding protein AKAP79.” J. Biol. Chem., 277, 33598-33603 (Ref 5) and in Dubel, S. J., Altier, C., Chaumont, S., Lory, P., Bourinet, E. and Nargeot, J. (2004) “Plasma Membrane Expression of T-type Calcium Channel {alpha}1 Subunits Is Modulated by High Voltage-activated Auxiliary Subunits.” J Biol Chem, 279, 29263-29269 (Ref 6). The currents are recorded by the technique of imposed voltage by double microelectrode using a [sequence]500 amplifier (registered trademark) (MOLECULAR DEVICES (registered trademark)) controlled by the PCLAMP9 software (registered trademark). […] The fractions (10 μl) are applied manually, directly on the oocyte recorded by means of a pipette.

C57BL/6J mice [2] = assay: Tail immersion test in a water bath at 46° C. (thermal pain); format: in vivo; conditions: intrathecal injection, 10 and 100 nM, versus control group receiving physiological solution
Procedure: Mice are used for observing the analgesic effect of the peptide of the invention with respect to pain induced by thermal stimuli.
(§1) The mice are C57BL/6J wild-type mice and C57BL/6J CaV3.2−/− mice. The total number of mice is 10 wild-type and 10 CaV3.2−/−.
Two groups of mice (C57BL/6J) are used, one group injected intrathecally with a physiological solution comprising the peptide of the invention at a concentration of 10 and 100 nM and a second group (control group) receiving only intrathecal injection of physiological solution alone. The mice are then submitted to the test of immersion of the tail in a water bath at 46° C. The purpose of this experiment is to determine the time after which the mice react to the painful heat, thus showing the threshold of appearance of the painful signal connected with perception of heat. The same experiment is conducted in parallel on two other groups of C57BL/6J mice lacking the gene coding for the T-type calcium channel encoded by the CaV3.2 subunit. The purpose of this experiment is to show the selectivity of the peptide of the invention.

C57BL/6J mice [3] = assay: Mechanical stimulation test with von Frey bristles; format: in vivo; conditions: intrathecal injection, 10 and 100 nM, versus control group receiving physiological solution
Procedure: Mice are used for observing the analgesic effect of the peptide of the invention with respect to mechanical stimuli.
as §1
Two groups of mice (C57BL/6J) are used, one group injected intrathecally with a physiological solution comprising the peptide of the invention at a concentration of 10 and 100 nM and a second group (control group) only receiving intrathecal injection of the physiological solution alone. The mice are then submitted to the mechanical stimulation test with von Frey bristles. The purpose of this experiment is to determine the threshold of reaction to a mechanical stimulus of increasing intensity applied on the arch of the foot. The animals' reaction threshold is correlated with the appearance of the painful signal connected with the perception of mechanical pressure. The same experiment is conducted in parallel on two other groups of C57BL/6J mice lacking the gene coding for the T-type calcium channel encoded by the CaV3.2 subunit. The purpose of this experiment is to show the selectivity of the peptide of the invention.

Row | Compound | Hill number (slope of dose-effect curve) [1] | current of the Cav3.2 channel after application of the toxin (human Cav3.2) | time to react to heat (C57BL/6J mice [2]) | threshold of perception of mechanical pressure (C57BL/6J mice [3])
1 | CC[C@H](C)[C@H](NC(=O)[C@H](CCCCN)NC(=O)[C@@H]1CSSC[C@@H]2NC(=O)[C@@H]3CCCN3C(=O)[C@H](CCCNC(=N)N)NC(=O)[C@H](CCC(=O)O)NC(=O)[C@H](CO)NC(=O)[C@H](CC(=O)O)NC(=O)[C@@H]3CSSC[C@H](NC(=O)[C@H](C(C)C)NC(=O)[C@H](CC(C)C)NC(=O)CNC(=O)[C@H](CCC(=O)O)NC(=O)[C@H](CSSC[C@H](NC(=O)[C@@H](N)Cc4ccc(O)cc4)C(=O)N[C@@H](CCC(N)=O)C(=O)N[C@@H](CCCCN)C(=O)N[C@@H](Cc4ccccc4)C(=O)N[C@@H](CC(C)C)C(=O)N[C@@H](Cc4c[nH]c5ccccc45)C(=O)N[C@@H]([C@@H](C)O)C(=O)N3)NC2=O)C(=O)N[C@@H](CCCNC(=N)N)C(=O)N[C@@H](CC(C)C)C(=O)N[C@@H](Cc2c[nH]c3ccccc23)C(=O)N1)C(=O)N[C@@H](CC(N)=O)C(=O)O [natural toxin] | 0.87 | strongly inhibited |  | 
2 | CC[C@H](C)[C@H](NC(=O)[C@H](CCCCN)NC(=O)[C@@H]1CSSC[C@@H]2NC(=O)[C@@H]3CCCN3C(=O)[C@H](CCCNC(=N)N)NC(=O)[C@H](CCC(=O)O)NC(=O)[C@H](CO)NC(=O)[C@H](CC(=O)O)NC(=O)[C@@H]3CSSC[C@H](NC(=O)[C@H](C(C)C)NC(=O)[C@H](CC(C)C)NC(=O)CNC(=O)[C@H](CCC(=O)O)NC(=O)[C@H](CSSC[C@H](NC(=O)[C@@H](N)Cc4ccc(O)cc4)C(=O)N[C@@H](CCC(N)=O)C(=O)N[C@@H](CCCCN)C(=O)N[C@@H](Cc4ccccc4)C(=O)N[C@@H](CC(C)C)C(=O)N[C@@H](Cc4c[nH]c5ccccc45)C(=O)N[C@@H]([C@@H](C)O)C(=O)N3)NC2=O)C(=O)N[C@@H](CCCNC(=N)N)C(=O)N[C@@H](CC(C)C)C(=O)N[C@@H](Cc2c[nH]c3ccccc23)C(=O)N1)C(=O)N[C@@H](CC(N)=O)C(=O)O [synthetic peptide] | 0.89 |  |  | 
3 | YCQKFLWTCDSERPCCEGLVCRLWCKIN (disulfide (positions not given here); not fully specified (bridges); also: 3 disulfide bridges between the 6 cysteines, pairing not given here) [peptide of sequence SEQ ID NO 1] |  |  | significantly longer | significantly higher
